Measured values: patent US5837728A, “9-cis retinoic acid esters and amides and uses thereof” (priority 1995, dated 1998)
Entries after “also recorded” stand apart in the source; their conditions may differ. Like-named read-outs stand apart in the source and are kept apart here.

Columns and labels:
[1] = test system: skin of rabbits; assay: Topical assay for primary acute dermal irritation; type: in vivo
Procedure: Twelve healthy, young, adult, female New Zealand White rabbits (Orycetolagus cuniculus), are used in the study. […] At the start of the study, the animals are in the weight range between 2.0 and 3.0 kilograms, and are approximately 11 weeks of age. Animals selected for the test are not subjected to any previous experimental procedures, and their skin is free from irritation, trauma and disease.
Six animals are treated in this manner.
The application sites are prepared by clipping the skin of the trunk free of hair approximately 24 hours before application of the dose. One application site on each animal is abraded by making minor incisions through the stratum corneum, but not sufficient to disturb the derma (that is, not sufficiently deep to produce bleeding). The second application site is intact skin.
The dose is applied to a small area (approximately 6 cm^2) of skin and covered with a gauze patch which is held in place with Vetrap bandaging. The patches are applied to one intact site and one abraded site per animal. The test substance is kept in contact with the skin for 24 hours. The skin is not rinsed following the 24 hour exposure period.
Animals are observed for signs of erythma and edema 24 and 72 hours after application of the test material. Observations are scored according to the Draize Scale for Scoring Skin Reactions as in Draize, J. H., Dermal Toxicity, Appraisal of the Safety of Chemicals in Foods, Drugs and Cosmetics Dermal Toxicity, pp. 46-59, Association of Food and Drug Officials of the U.S., Topeka, Kans., 1965. […] Animals are weighed at the beginning and at the end of the observation period.

[2] = test system: sun-damaged, wrinkled, aged skin of the face and forearms; assay: Topical assay for antiaging and antiactinic effects (dermatoheliosis); type: in vivo, human (patients)
Text: Four subjects aged 49 to 73, three females and one male having significant,easily observe, sun-damaged, wrinkled, aged skin of the face and forearms are subjects of a study to determine the effect of topical application of 2-(9-cis-retinoyloxy)-4-methoxyacetophenone in the treatment of dermatoheliosis. The three females had moderately severe sun-damaged skin and wrinkles of the forearms, hands and face. The one person has extremely severe sun damage in these areas as well as multiple actinic keratoses. The four subjects are provided with and applied to their entire faces (omitting the eyelids) and dorsal surface of the right forearm, once daily for 12 to 16 weeks, 0.1% concentration of 2-(9-cis-retinoyloxy)-4-methoxyacetophenone in a hydrophilic cream vehicle. The left forearm of each patient is treated daily with a non-medicated moisturizer of the patients choice.
All subjects are evaluated every 4 weeks through the study for redness, peeling, skin surface texture and wrinkling. Biopsies (using a 4 mm punch) are taken from the dorsal surface of the right upper forearm at the beginning of the study and again from the same area at the end of the study. The biopsies are stained with H & E, Alcian Blue and collagen/elastic stains and compared by a qualified dematopathologist.

[3] = test system: ornithine decarboxylase (ODC); assay: ODC/Retinoid Bioassay: inhibition of TPA induced ornithine decarboxylase activity; type: in vivo, CD-1 mice; details: topical, TPA induced
Procedure: The ODC/Retinoid Bioassay is based on the method of Verma, A. K. and Boutwell, R. K., Cancer Res. (1977) 37:2196-2201. The ODC assay measures a compounds effect on the prevention of the induction of ODC, namely the effect of the retinoid compound on the inhibition of the tumor promoter 12-O-tetradecanoylphorbol-13-acetate (TPA) induced ODC activity. The assay is carried out using CD-1 mice (aged 7 to 9 weeks). The dorsal hair of the mice is shaved 3-4 days before testing. Four mice are used for each point. The test retinoids, at one of two dose levels (1.7 and 17 nmoles) dissolved in 0.2 ml of acetone is applied topically to the back of each shaved mouse. A single dose of TPA ([…]) is applied to the back of each treated mouse 30 minutes later. Control groups are treated with either acetone alone, TPA, or tretinoin. The mice are sacrificed by cervical dislocation 5 hours after TPA treatment.
The dorsal skin encompassing the shaved and TPA exposed area is excised and placed in a 100 ml beaker containing distilled water maintained at 51° C.-57° C. The skin is soaked for 50-70 seconds at this temperature with intermittent stirring. The skin is placed epidermis side up in a chilled (0°-5° C.) stainless steel plate and the epidermal layer is scraped off with a razor blade. The epidermal layers from the 4 mice are pooled and placed in a homogenization tube with 2 ml of ODA buffer ([…] with […] pyridoxal phosphate, […] ethylenediaminetetraacetic acid (EDTA), 1 mM dithiothreitol, pH 7.5). The pooled epidermal layers are homogenized for 15 seconds at 0° C. using a Polytron homogenizer at a setting of 7.5. The homogenate is centrifuged at 30,000×g and the supernatant fraction is pipetted into a storage tube and frozen for about 72 hours.
The homogenate is assayed for ODC activity as described by Verma and Boutwell to measure the release of ^14 CO2 from labeled DL(1-14C) ornithine. Incubations are carried out in disposable centrifuge tubes with center well holders containing filter paper impregnated with sodium hydroxide to absorb ^14 CO2. The incubation mixture consisted of 90 μl of L-ornithine, 350 μl of ODC buffer, 100 μl of 14C-ornithine (1.32 nm, Sp. Act:4.4 pCi/pM) and 10 μl of test sample. After incubation at 37° C. for 45 minutes, 0.5 ml of 2M chilled citric acid (4° C.) is added and incubation is continue for an additional 30 minutes to insure complete absorption of ^14 CO2. The filter paper is removed from the center well holders and set in 1 ml of water in capped scintillation vials for at least 1 hour before adding RBI 3820 scintillation cocktail. Radioactivity is measured in a Tri Carb Scintillation Counter. Results are expressed as pmol of ^14 CO2 released in 30 minutes per milligram of protein based on the specific activity of DL-14C-ornithine. The results are expressed in Table 2 below as the % reduction in ODC activity as compared to the control, for the compounds of each of the preceding Examples: […]

[4] = test system: corneal epithelial wounds; details: cited from earlier work
[5] = test system: Human neonatal foreskin keratinocytes; assay: Growth of human neonatal foreskin keratinocytes (cell number); type: cell-based; details: three days
Text: Human neonatal foreskin keratinocytes and human neonatal foreskin fibroblasts were isolated and grown in monlayer culture. Culture medium for keratinocytes was Keratincyte Growth Medium (KGM) from Clonetics, Inc., San Diego. Calif. The culture medium for fibroblasts was Dulbecco's Modified Eagle's Medium (DMEM) supplemented with non-essential amino acids and 10% fetal bovine serum. The culture medium was obtained from GIBCO, Grand Island, N.Y. and the FBS was from Hyclone Labs, Inc., Logan, Utah.
Cells at passage 2-4 were plated in wells of a 24 well dish at approximately 5×10^4 cells per well in their respective culture medium. Incubation was at 37° C. with 5% CO2. After the cells attached and spread overnight, they were washed two times in serum-free keratincyte basal medium (KBM) and incubated in 1 ml of KBM or in 1 ml of KGM. Compound IV was added in varying concentrations to the wells. […] The cells were incubated for an additional two days for fibroblasts and three days for keratinocytes, and were then harvested and counted.

[6] = test system: epidermal growth factor cell surface receptors; details: in vitro; cited from earlier work
[7] = test system: rabbit skin; assay: Draize test for irritation (rabbit dermal irritation); type: in vivo
[8] = test system: photoaged skin; details: cited from earlier work
[9] = test system: skin wound of rats; details: 1% for 3 days before and 0.1% after the wound; cited from earlier work
[10] = 0.1% cream, once daily for 12 to 16 weeks
[11] = 17.0 nM (as printed in Table 2)
[12] = 0.1% retinoic acid hydrophilic cream, 16 weeks

## COc1ccc(C(=O)COC(=O)/C=C(C)/C=C/C=C(C)\C=C\C2=C(C)CCCC2(C)C)cc1 [Compound 2, 2-(9-cis-retinoyloxy)-4'-methoxyacetophenone]
[1]; 0.5 ml topical, intact and abraded skin, 24 and 72 hours
  Signs of erythema or edema formation (Draize scale): no signs of erythema or edema formation are evident in any of the 12 test animals
[1]; beginning vs end of observation period, all 12 animals
  Body weight change: All 12 animals exhibited a gain in body weight
[1]; rabbit, in vivo
  Overt signs of toxicity: No overt signs of toxicity are evident
[2]; [10]
  Facial improvement of dermatoheliosis: all show an improvement in their dermatoheliosis; also recorded: Two of the four patients show very significant improvement in facial smoothness, dryness and fine wrinkling; also recorded: Moderate improvement of these parameters are observed in the other two patients
  Irritation during antiaging study: No significant irritation is experienced by any patient; also recorded: Very slight pinkness and a feeling of slight tightness in facial skin develops in two patients
[2]; 0.1% cream, once daily, within two months
  Forearm improvement in surface texture, dryness and fine wrinkling: three show improvement in surface texture (smoothness), surface dryness and fine wrinkling within two months
[2]; dorsal right forearm, 4 mm punch
  Biopsy differences before and after treatment: no significant differences in before treatment and after treatment biopsies
[3]; 1.7 nM (as printed in Table 2)
  ODC activity reduction: ++
[3]; [11]
  ODC activity reduction: +++

## CC1=C(/C=C/C(C)=C/C=C/C(C)=C/C(=O)O)C(C)(C)CCC1 [all-trans-retinoic acid, reference compound]
[4]; 0.1% tretinoin three times per day
  Increase in the healing rate: 21%
[4]; five times a day
  Increase in the healing rate: 35%
[5]; 0.25 μg/ml
  Number of keratinocytes, KGM: 24.7 ± 1.7 × 10^4 cells
  Number of keratinocytes, KMB: 13.7 ± 1.6 × 10^4 cells
[5]; 0.5 μg/ml
  Number of keratinocytes, KGM: 17.7 ± 0.8 × 10^4 cells
  Number of keratinocytes, KMB: 15.2 ± 0.1 × 10^4 cells
[5]; 1.0 μg/ml
  Number of keratinocytes, KMB: 12.3 ± 1.0 × 10^4 cells
[6]
  Effect on epidermal growth factor activity and receptor binding: increases the mitogenic activity of epidermal growth factor and its binding to its cell surface receptors in vitro
[7]; dose 0.001%
  Erythema Grade: 0.4
[7]; dose 0.01%
  Erythema Grade: 0.8
[7]; dose 0.1%
  Erythema Grade: 2.8
[7]; rabbit
  ID50, dermal irritation: 0.01%
[8]; [12]
  Effect on sun damaged skin (Weiss study): some positive effects on the surface texture and wrinkling of sun damaged facial skin, and on the histology of the epidermal and stratum corneum layers of dorsal forearm skin
  Irritancy (Weiss study): moderately severe irritancy level
[8]; Weiss et al.
  Patients who experienced dermatitis: 92%
[8]; cream containing 0.1% tretinoin, daily topical
  Improvement of photoaging of the skin: could be improved within a 16-week period
[8]; topical tretinoin therapy
  Redness, peeling, stinging, burning and dryness: consistently experienced by nearly all subjects
  Subjects with dermatitis severe enough to require topical steroids: Eleven of fifteen subjects
  Subjects withdrawn due to severity of dermatitis: Three of fifteen
[3]; [11]
  ODC activity reduction: +++
[9]
  Acceleration of healing compared to control group: 18%
